Data taken from US20040147567A1, “Arginine derivatives” (priority 2001, published 2004).
pIC50: −log10 of the molar value.

Biological target: T1, human MC4 receptor (Homo sapiens, UniProt P32245)
T1 construct: purchased Biolinks Co; host or cells: HEK-293 cell membranes
Assay: MC4 receptor binding assay ([125I]Nle4-D-Phe7-α-MSH displacement)
Conditions: HEK-293 cell membranes expressing the human MC4 receptor; [125I]Nle4-D-Phe7-α-MSH 0.2 nM; 25° C., 120 minutes
Experimental: Experiment 1 [MC4 Receptor Binding Assay]
MC4 receptor binding assay was carried out according to the method described in Pharmacology & Toxicology, 79, 161-165, 1996. HEK-293 cell membranes expressing the human MC4 receptor were purchased from Biolinks Co. The cell membranes were homogenized in a 50 mM Tris hydrochloric acid buffer solution (pH 7.4) containing 2 mM ethylenediamine tetraacetic acid, 10 mM calcium chloride and 100 μM phenylmethanesulfonylfluoride. The homogenate was centrifuged at 48,000×g for 20 minutes at 4° C. The precipitate obtained by centrifugation was again homogenized in the same buffer solution, and the homogenate was centrifuged at 48,000×g for 20 minutes at 4° C. This procedure was repeated twice. The precipitate was suspended in 50 mM Tris hydrochloric acid buffer solution (pH 7.4) containing 2 mM ethylenediamine tetraacetic acid, 10 mM calcium chloride, 100 μM phenylmethanesulfonylfluoride and 0.1% bovine serum albumin to adjust to a protein concentration of 100 μg/ml to give a crude membrane preparation which was used for the binding assay. The crude membrane preparation (0.25 ml, 25 μg protein) was reacted with [^125I]Nle^4-D-Phe^7-α-MSH (final concentration; 0.2 nM) at 25° C. for 120 minutes. […] The radioactivity on the filter paper was measured in a gamma-counter. […] The IC50 value was calculated from the inhibition curve in the concentration of 10^−9-10^−5.

T1 sequence (P32245 whole entry): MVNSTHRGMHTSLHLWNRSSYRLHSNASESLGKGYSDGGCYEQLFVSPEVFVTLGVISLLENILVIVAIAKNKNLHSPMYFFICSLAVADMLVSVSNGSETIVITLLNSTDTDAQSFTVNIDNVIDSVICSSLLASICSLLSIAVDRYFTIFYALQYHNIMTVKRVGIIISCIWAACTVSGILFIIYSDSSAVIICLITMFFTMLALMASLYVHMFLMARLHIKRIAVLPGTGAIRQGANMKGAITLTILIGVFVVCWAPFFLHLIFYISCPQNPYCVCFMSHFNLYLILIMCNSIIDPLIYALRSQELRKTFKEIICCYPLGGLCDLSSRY

Q: With `CC(=O)N[C@H](Cc1cccc2ccccc12)C(=O)N[C@@H](CCCNC(=N)N)C(=O)N[C@H](Cc1ccc2ccccc2c1)C(N)=O` [Compound 224] as the compound, how does the pIC50 read?
A: 6.16
